This is an account of results in publication PMC6892255, “Identification of a potent small-molecule inhibitor of bacterial DNA repair that potentiates quinolone antibiotic activity in methicillin-resistant Staphylococcus aureus^” (Bioorganic & Medicinal Chemistry, 2019).

Where only a bound is given, the exact number is not on record here.

The test system of experiment [1] is methicillin-resistant S. aureus (MRSA, USA300 JE2). The experiment is described as follows: Ciprofloxacin (CFX) potentiation in MRSA growth inhibition assay. As to conditions: for EC50: read-out: EC50 S. aureus (USA300 JE2) Compound + CFX (9.4 μM), in presence of half-MIC CFX (9.4 μM). Format: cell-based, Staphylococcus aureus. As for the experimental part: (§1) 2.1. Biological and biochemical methods
(§2) Bacterial strains and culture conditions
(§3) Strains utilized in the present study are detailed in Table S1. All strains used were cultivated on Mueller Hinton Agar (MHA) and grown to stationary-phase in Mueller Hinton Broth (MHB) at 37 °C for 16 h, with shaking at 180 r.p.m.
(§4) Minimum inhibitory concentration (MIC) assays
(§5) MIC assays were performed in 96 well plates and MICs were determined in accordance with the broth microdilution protocol.4 Strains grown to stationary-phase in MHB were adjusted to 5 x 10^5 colony-forming units (CFU)/mL in fresh MHB (100 µL/well) supplemented with DMSO to ensure a constant concentration of 0.5% (v/v) DMSO across all experiments. Where […]
(§6) or H2O2 (200 μM). Test compounds were prepared as two-fold serial dilutions. Cells were […]
(§7) as the lowest concentration with no visible bacterial growth, and the optical density at 600 nm (OD600) was recorded. OD600 measurements were background corrected against no-inocula control and normalized to DMSO control for dose-response analysis. The EC50 value mean and SEM were calculated from individual EC50 values from three biological replicates. […]

Experiment [2] concerns E. coli K-12 BW25113. Description: MIC / growth inhibition assay (end-point OD600), single agent. Format: cell-based, Escherichia coli. The conditions noted are these: Escherichia coli, BW25113, end-point OD600 after 18 h, read-out: EC50 E. coli (K12 BW25113) Compound only.
Source text: (§8) Minimum inhibitory concentration (MIC) assays were used to evaluate the antimicrobial activity of compounds against Gram-negative (E. coli) and Gram-positive (S. aureus) bacteria. […] Gram-positive bacteria are more susceptible to small-molecule penetration, and compounds were therefore assessed for growth inhibition against the S. aureus SH1000 strain.
as §1, §2, §3, §4, §5, §6, §7

The subject of experiment [3] is S. aureus SH1000. The description is as above. The conditions noted are these: Staphylococcus aureus, SH1000, 18 h, end-point OD600 after 18 h, read-out: EC50 S. aureus (SH1000) Compound only. The class given is cell-based.
Source text: as §8, §1, §2, §3, §4, §5, §6, §7

Experiment [4] has as its system methicillin-resistant S. aureus (MRSA, USA300 JE2). The experiment is described as above. Format: cell-based, Staphylococcus aureus.
Source text: as §8
Methicillin-resistant S. aureus (MRSA) is a multi-drug resistant bacterium responsible for a large number of nosocomial infections.[34] The emergence of community associated (CA)-MRSA capable of infection of healthy individuals highlights its significance and clinical relevance.[35]
as §1, §2, §3, §4, §5, §6, §7

Experiment [5] concerns the target T1, E. coli topoisomerase IV (Escherichia coli, UniProt P0AFI2+P20083).
T1 construct: purchased Inspiralis
Description: Topoisomerase IV supercoiling relaxation assay (pQE80L). Format: biochemical. The conditions noted are these: at 12.5 µM (compounds). The procedure:
2.1. Biological and biochemical methods […]
E. coli DNA gyrase supercoiling assay (Inspiralis) was performed according to the manufacturer’s instructions, ensuring a constant concentration of 1% (v/v) DMSO. Samples were separated on a 1% (w/v) agarose gel prepared with Tris/Borate/EDTA (TBE) buffer (1 M Tris-borate, 20 mM EDTA, pH 8.0). Electrophoresis was performed at 100 V until the bromophenol blue dye had run >6 cm to ensure resolution of relaxed and supercoiled DNA.
The gel was stained with SYBR Safe DNA gel stain (Invitrogen, 1:10,000 dilution in TBE) for 30 min, and visualized on a Syngene Gel Doc system. Band intensity was quantified using ImageJ software and the fraction of supercoiled plasmid was determined as the ratio of the density of the supercoiled band to the total density. Values were background corrected against the no-gyrase control and normalized to DMSO control for dose-response analysis.
E. coli topoisomerase IV supercoiling relaxation assay (Inspiralis) was performed according to the manufacturer’s instructions, ensuring a constant concentration of 1% (v/v) DMSO.
Supercoiled pQE80L was prepared via plasmid purification and used as the substrate for the reaction. Reactions were analyzed as described for DNA gyrase assays. […]

Setting [6] is: Staphylococcus aureus, 18 h, read-out: EC50 S. aureus (USA300 JE2) Compound only, single agent, end-point OD600 after 18 h.

T1 sequence (P0AFI2 whole entry): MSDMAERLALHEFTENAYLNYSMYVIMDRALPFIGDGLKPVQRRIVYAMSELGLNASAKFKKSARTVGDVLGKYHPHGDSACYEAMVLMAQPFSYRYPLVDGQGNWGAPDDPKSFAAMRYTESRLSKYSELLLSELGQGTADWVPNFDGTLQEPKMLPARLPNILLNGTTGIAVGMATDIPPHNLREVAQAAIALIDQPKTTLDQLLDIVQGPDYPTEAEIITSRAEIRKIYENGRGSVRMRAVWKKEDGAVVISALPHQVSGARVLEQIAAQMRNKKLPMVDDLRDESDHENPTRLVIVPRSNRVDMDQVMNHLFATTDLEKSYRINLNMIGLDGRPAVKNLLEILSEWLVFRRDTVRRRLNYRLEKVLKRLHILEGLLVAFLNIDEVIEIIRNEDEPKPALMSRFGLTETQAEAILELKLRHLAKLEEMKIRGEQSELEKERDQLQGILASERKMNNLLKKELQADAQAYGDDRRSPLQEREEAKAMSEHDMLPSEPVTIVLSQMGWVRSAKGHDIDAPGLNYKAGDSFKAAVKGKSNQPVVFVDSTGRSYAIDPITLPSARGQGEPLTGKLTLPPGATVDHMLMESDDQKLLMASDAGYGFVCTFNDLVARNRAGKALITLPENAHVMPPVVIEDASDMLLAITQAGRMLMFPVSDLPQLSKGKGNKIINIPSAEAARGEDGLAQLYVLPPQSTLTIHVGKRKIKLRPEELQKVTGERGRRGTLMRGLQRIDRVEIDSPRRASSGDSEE
T1 sequence (P20083 whole entry): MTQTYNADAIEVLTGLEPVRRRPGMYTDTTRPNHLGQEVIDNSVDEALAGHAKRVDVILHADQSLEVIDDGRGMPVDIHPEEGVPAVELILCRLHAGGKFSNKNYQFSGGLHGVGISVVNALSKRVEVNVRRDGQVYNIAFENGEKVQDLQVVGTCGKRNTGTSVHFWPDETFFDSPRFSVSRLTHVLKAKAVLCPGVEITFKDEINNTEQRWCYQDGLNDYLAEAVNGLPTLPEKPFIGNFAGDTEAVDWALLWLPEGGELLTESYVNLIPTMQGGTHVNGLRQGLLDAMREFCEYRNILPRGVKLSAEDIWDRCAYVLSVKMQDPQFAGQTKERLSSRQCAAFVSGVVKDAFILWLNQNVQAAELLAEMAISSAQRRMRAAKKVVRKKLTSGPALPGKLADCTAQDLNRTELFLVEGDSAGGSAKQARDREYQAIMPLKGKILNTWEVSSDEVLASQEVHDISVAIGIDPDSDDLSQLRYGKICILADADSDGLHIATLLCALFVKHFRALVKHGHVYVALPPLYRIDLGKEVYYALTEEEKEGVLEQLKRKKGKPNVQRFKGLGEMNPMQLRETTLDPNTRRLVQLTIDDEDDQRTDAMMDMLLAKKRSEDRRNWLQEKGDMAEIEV

As to `O=C(O)c1cn(C2CC2)c2cc(N3CCN(C(=S)Nc4cccc([N+](=O)[O-])c4)CC3)c(F)cc2c1=O` [Compound 13], the EC50 in experiment [1] was 430 ± 90 nM; in experiment [2] it was 270 ± 20 nM; in experiment [3], 110 ± 30 nM; in experiment [4] (setting [6]) it was greater than 25 µM.
`O=C(O)c1cn(C2CC2)c2cc(N3CCN(C(=S)Nc4ccc([N+](=O)[O-])cc4)CC3)c(F)cc2c1=O` [Compound 14]: the “fold increase in potency of para- over meta-substituted analogue, potentiation by CFX” value in experiment [1] (JE2 + CFX, 4 vs 1, 10 vs 7, 14 vs 13) is given as roughly 10 fold. Also, the EC50 is 49 ± 6 nM in experiment [1], 260 ± 40 nM in experiment [2], 50 ± 8 nM in experiment [3] and greater than 12.5 µM in experiment [4] (setting [6]).
Turning to `CCn1cc(C(=O)O)c(=O)c2cnc(N3CCN(C(=O)Nc4ccccc4)CC3)nc21` [Compound 15], the “Effect of the presence of CFX on potency” value in experiment [1] (JE2, CFX 9.4 µM) is given as “unaffected”. Also, the EC50 is greater than 12500 nM in experiment [1]; greater than 12500 nM in experiment [2]; greater than 12500 nM in experiment [3]; greater than 12.5 µM in experiment [4] (Staphylococcus aureus, single agent, end-point OD600 after 18 h, read-out: EC50 S. aureus (USA300 JE2) Compound only). The “Inhibition of topoisomerase IV” value in experiment [5] was “not inhibited and not”.
For the compound `CC1CN(c2cc3c(cc2F)c(=O)c(C(=O)O)cn3C2CC2)CCN1C(=S)Nc1ccc(C(F)(F)F)cc1` (centres unmarked) [Compound 16], the EC50 was determined as 18 ± 3 nM in experiment [1], 300 ± 60 nM in experiment [2], 260 ± 40 nM in experiment [3] and 3.9 ± 0.4 µM in experiment [4] (setting [6]).
Taken in the same sequence, the figures for `O=C(O)c1cn(C2CC2)c2cc(N3CCC(NC(=S)Nc4ccc(C(F)(F)F)cc4)C3)c(F)cc2c1=O` (centres unmarked) [Compound 17] were 3200 ± 300 nM, 2800 ± 400 nM, 1600 ± 400 nM and 53 ± 13 µM.
Regarding `O=C(O)c1cn(C2CC2)c2cc(NCCNC(=S)Nc3ccc(C(F)(F)F)cc3)c(F)cc2c1=O` [Compound 18], the EC50 is 2500 ± 300 nM in experiment [1], greater than 100000 nM in experiment [2], 7700 ± 1200 nM in experiment [3] and 9.7 ± 1 µM in experiment [4] (setting [6]).
As for `CC(C)(C)OC(=O)NCCNC(=O)c1cn(C2CC2)c2cc(N3CCN(C(=S)Nc4ccc(C(F)(F)F)cc4)CC3)c(F)cc2c1=O` [Compound 19], the figures for the EC50 in experiment [2], in experiment [3] and in experiment [4] (setting [6]) were greater than 100000 nM, greater than 100000 nM and greater than 100 µM, respectively.
As to `NCCNC(=O)c1cn(C2CC2)c2cc(N3CCN(C(=S)Nc4ccc(C(F)(F)F)cc4)CC3)c(F)cc2c1=O` [Compound 20], the figures for the EC50 in experiment [2], in experiment [3] and in experiment [4] (setting [6]) were 47000 ± 1000 nM, 76000 ± 5000 nM and 78 ± 8 µM, respectively.
Turning to `OO` [Compound H2O2, hydrogen peroxide, reference compound], the EC50 in experiment [4] (single agent, end-point OD600 after 18 h, read-out: EC50 S. aureus (USA300 JE2) Compound only) worked out at 147 ± 11 µM.
Consider `CO[C@@]12[C@H](COC(N)=O)C3=C(C(=O)C(C)=C(N)C3=O)N1C[C@@H]1N[C@@H]12` [MMC, Mitomycin-C, reference compound], for which the EC50 in experiment [4] (setting [6]) stood at 0.33 ± 0.01 µM.

As usually defined, the EC50 is the midpoint of the concentration-response curve.
